Reference: US4594340A, “25,26-dehydro-1α,24R-dihydroxycholecalciferol and 25,26-dehydro-1α,24S-dihydroxycholecalciferol and the epimeric mixture” (Hoffmann-La Roche Inc., priority 1984, dated 1986)

Tests used:
HL-60 cells = test: Differentiation of HL-60 cells by nitroblue tetrazolium (NBT) reduction; assay type: cell-based, human (patient); conditions: Homo sapiens, 96 h; HL-60 cells, NBT test; read-out: HL-60 Test Differentiation NBT Test ED50
Method: Cultures of HL-60 cells were established in the absence (control) or presence of various concentrations of the test compound. […] Proliferation was assessed by directly enumerating the increased number of tumor cells resulting from incubation. Viability was determined by dye exclusion technique to learn whether any of the compounds were lethal to cultured HL-60 cells. Cellular differentiation was evaluated by determining the number of cells which had acquired the enzymes necessary to support a respiratory burst and the functional ability to phagocytose (bind/internalize) particulate material from their environment; both activities being characteristic of mature macrophages and granulocytes,
Experimental compounds were dissolved in sufficient ethanol to yield stock solutions of 1×10^-2 molar. Reduced lighting was employed when working with compounds and stock solutions were stored in the dark at -20° in an argon atmosphere. Compounds were diluted with tissue culture medium and added to flasks containing HL-60 cells to achieve the final concentrations described in each experiment.
The promyelocytic (HL-60) tumor cell line was derived from a patient with acute promyelocytic leukemia. HL-60 cells were maintained in liquid culture by serial weekly passage in tissue culture medium. In any experiment, three replicate flasks were incubated without compound (control) or in the presence of varying concentrations of compound. […]
Quantitation of differentiated cells was done by the biochemical method of nitroblue tetrazolium (NBT) reduction. Sufficient cells were pooled from replicate cultures, centrifuged at 220×g, washed once with serum-free tissue culture medium, and resuspended to 1×10^6 cells per ml in Ca^++ --Mg^++ -deficient phosphate buffered saline (prepared by supplementing Ca^++ --Mg^++ -free phosphate buffered saline (PBS) to 10% v/v with heat-inactivated fetal bovine serum). Nitroblue tetrazolium was dissolved at 1 mg per ml in Ca^++ --Mg^++ -deficient PBS with gentle heating and mixing. Tetradecanoyl phorbol acetate (TPA) was dissolved at 1 mg per ml in ethanol and stored at -20° C. Just prior to use, a working solution of TPA was prepared by diluting the stock concentration 100-fold with Ca^++ --Mg^++ -deficient PBS. The test was done in 12×75 mm tubes by adding 0.5 ml Ca^++ --Mg^++ -deficient PBS, 1.0 ml of HL-60 cells, 0.5 ml of NBT solution, and 0.02 ml of the working TPA solution. After mixing, the tubes were incubated in a 37° water bath for 25 minutes then transferred to ice. Undifferentiated and differentiated cells present in any sample were determined microscopically by surveying 200-400 cells per sample or by cytofluorograph by surveying greater than 30,000 cells. Cells without pigmented granules (clear cells) were judged to be undifferentiated while those containing greater than 3 blue-black formazan granules were scored as differentiated. […] Results are expressed as the percentage of differentiated cells present in any sample as calculated according to the formula: [formula]

[1] = Antirachitogenic increase in tibia ash in chicks on vitamin D-deficient diet; assay type: in vivo, chick (White Leghorn cockerels); conditions: 27 ng, orally, 21 consecutive days
Method: **Oneday-old White Leghorn cockerels were placed on a vitamin Ddeficient
diet which contained 1% calcium and 0.7% phosphorus and were housed under
ultravioletfree lighting (General Electric F40G0 gold fluorescent lights)
The test compound was dissolved in propylene glycol and administered
orally in a volume of 0.2 ml/day for 21 consecutive days. Controls were
treated with vehicle alone. Chicks were autopsied on the day after the […]

## C=C1/C(=C\C=C2/CCC[C@]3(C)[C@@H]([C@H](C)CCCC(C)(C)O)CC[C@@H]23)C[C@@H](O)C[C@@H]1O [1α,25-Dihydroxycholecalciferol, reference compound]
HL-60 cells
  EC50: 12 nM
[1]
  Antirachitogenic Increase in Tibia Ash in Chicks: 61%
